≈ marks a conversion by molar mass, not a printed value. Read-outs that look alike come from different tables or passages of the source.
Experiments:
[1] = biological target: T1, S. aureus DNA gyrase (Staphylococcus aureus, UniProt P20831); assay: biochemical; assay type: biochemical; conditions: for LE DNA Gyrase S. aureus: LE = (1.37/HA) × pIC50; for IC50: fluorescence plate supercoiling assay, mean of two to four measurements
T1 construct: purchased Inspiralis (Norwich, UK)
Method: (§1) A Gyrase Supercoiling High Throughput Plate assay kit, purchased from Inspiralis (Norwich. UK) was used to determine IC50 values of compounds on S. aureus and E. coli. […] Biotinylated oligonucleotide in wash buffer was immobilized onto the wells, and the excess oligonucleotide was washed off with wash buffer and ultrapure water. […] The reactions were stopped by adding the TF buffer (50 mM NaOAc (pH 4.7), 50 mM NaCl, and 50 mM MgCl2) to allow the triplex formation (biotin-oligonucleotide-plasmid) for additional 30 min. Afterward, the unbound plasmid was washed off using TF buffer, and the solution of Promega Diamond dye in T10 buffer (10 mM Tris-HCl (pH 8.0), 1 mM EDTA) was added. […] IC50 value represents the mean of two to four independent measurements.

[2] = biological target: T2, E. coli DNA gyrase (Escherichia coli, UniProt P0AES4); assay: Gyrase Supercoiling High Throughput Plate assay, E. coli; assay type: biochemical; conditions: for LE DNA Gyrase E. coli: LE = (1.37/HA) × pIC50
T2 construct: purchased Inspiralis (Norwich, UK)
T2 sequence (P0AES4 whole entry): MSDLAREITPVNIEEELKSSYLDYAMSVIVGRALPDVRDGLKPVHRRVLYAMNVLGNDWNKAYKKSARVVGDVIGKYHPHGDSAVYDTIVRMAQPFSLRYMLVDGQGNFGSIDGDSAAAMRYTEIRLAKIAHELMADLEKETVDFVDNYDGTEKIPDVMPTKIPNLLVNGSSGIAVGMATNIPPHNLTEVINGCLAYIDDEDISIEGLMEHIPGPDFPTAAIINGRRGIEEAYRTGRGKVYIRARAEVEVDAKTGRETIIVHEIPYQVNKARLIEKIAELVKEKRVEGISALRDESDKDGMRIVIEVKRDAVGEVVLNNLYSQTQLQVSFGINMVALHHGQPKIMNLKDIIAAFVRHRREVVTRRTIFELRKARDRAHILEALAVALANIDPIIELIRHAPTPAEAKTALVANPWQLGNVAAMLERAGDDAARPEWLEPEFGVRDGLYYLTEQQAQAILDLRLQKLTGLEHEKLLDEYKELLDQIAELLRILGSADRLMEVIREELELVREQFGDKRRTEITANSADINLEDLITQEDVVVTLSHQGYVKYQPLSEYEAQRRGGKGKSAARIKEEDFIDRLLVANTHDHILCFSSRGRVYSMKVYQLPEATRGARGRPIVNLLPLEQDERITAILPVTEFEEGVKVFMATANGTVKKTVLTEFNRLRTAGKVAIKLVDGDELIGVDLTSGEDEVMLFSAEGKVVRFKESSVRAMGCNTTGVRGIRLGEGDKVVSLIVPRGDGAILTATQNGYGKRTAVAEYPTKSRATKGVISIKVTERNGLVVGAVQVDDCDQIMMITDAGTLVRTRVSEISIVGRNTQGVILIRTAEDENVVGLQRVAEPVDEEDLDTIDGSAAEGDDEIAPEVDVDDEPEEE
Method: as §1

[3] = biological target: T3, S. aureus Topo IV (Staphylococcus aureus, UniProt Q2FYS4); assay: biochemical; conditions: for IC50: mean of two to four measurements, read-out: Topoisomerase IV IC50 S. aureus
T3 construct: purchased Inspiralis (Norwich, UK)
T3 sequence (Q2FYS5 whole entry): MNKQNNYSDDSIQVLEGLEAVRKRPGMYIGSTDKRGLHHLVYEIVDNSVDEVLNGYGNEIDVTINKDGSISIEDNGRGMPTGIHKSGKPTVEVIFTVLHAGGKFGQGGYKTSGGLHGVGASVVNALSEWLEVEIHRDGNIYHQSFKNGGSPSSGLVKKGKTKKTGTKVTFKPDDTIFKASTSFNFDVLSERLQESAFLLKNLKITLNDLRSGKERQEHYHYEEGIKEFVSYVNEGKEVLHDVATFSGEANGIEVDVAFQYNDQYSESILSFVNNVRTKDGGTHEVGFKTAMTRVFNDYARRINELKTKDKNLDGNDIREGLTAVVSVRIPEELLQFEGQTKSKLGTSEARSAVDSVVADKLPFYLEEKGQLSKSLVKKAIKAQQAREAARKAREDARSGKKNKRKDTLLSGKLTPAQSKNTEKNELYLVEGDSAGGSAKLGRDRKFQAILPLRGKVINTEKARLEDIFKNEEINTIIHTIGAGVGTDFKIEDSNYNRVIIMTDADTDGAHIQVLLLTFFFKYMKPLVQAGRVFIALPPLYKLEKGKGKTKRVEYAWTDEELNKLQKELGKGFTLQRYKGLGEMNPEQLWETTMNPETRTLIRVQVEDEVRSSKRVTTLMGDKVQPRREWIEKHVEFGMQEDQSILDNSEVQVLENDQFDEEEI
T3 sequence (Q2FYS4 whole entry): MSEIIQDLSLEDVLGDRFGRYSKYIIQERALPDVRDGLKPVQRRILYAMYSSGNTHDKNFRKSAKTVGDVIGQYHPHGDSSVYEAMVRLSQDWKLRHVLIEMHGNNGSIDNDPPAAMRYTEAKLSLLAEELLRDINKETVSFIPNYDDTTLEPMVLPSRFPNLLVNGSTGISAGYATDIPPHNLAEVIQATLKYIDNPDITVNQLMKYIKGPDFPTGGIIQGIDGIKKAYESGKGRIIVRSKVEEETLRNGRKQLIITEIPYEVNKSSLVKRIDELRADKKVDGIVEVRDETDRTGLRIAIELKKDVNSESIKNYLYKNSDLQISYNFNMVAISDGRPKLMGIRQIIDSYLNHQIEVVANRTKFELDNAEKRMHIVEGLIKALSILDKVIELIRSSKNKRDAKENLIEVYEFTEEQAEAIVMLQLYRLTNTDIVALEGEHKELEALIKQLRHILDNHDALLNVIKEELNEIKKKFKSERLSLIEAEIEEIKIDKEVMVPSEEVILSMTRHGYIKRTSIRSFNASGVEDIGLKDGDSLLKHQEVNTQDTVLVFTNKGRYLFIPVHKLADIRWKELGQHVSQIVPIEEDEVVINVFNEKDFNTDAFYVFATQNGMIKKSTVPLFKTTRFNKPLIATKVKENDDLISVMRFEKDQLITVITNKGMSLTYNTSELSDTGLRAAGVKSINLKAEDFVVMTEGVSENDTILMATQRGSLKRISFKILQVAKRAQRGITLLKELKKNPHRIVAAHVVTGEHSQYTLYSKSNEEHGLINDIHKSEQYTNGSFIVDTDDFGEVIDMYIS
Method: (§2) A Topo IV Relaxation High Throughput Plate assay kit, purchased from Inspiralis (Norwich. UK) was used to determine IC50 values of compounds on S. aureus and E. coli. […] Biotinylated oligonucleotide in wash buffer was immobilized onto the wells, and the excess oligonucleotide was washed off with wash buffer and ultrapure water. 1.5 U of S. aureus or E. coli […] enzyme was incubated together with 0.75 μg of supercoiled pNO1 plasmid as a substrate in the presence of 3 μL inhibitor solution in 10% DMSO and 0.008% Tween 20 at 37 °C for 30 min in a final reaction volume of 30 μL in dilution buffer (50 mM Tris-HCl (pH 7.5), 1 mM DTT, 1 mM EDTA, 40% (w/v) glycerol for S. aureus and 40 mM HEPES, KOH (pH 7.6), 100 mM potassium glutamate, 1 mM DTT, 1 mM EDTA, and 40% (v/v) glycerol for E. coli). The reactions were stopped by adding the TF buffer (50 mM NaOAc (pH 4.7), 50 mM NaCl, and 50 mM MgCl2) to allow the triplex formation (biotin-oligonucleotide-plasmid) for additional 30 min. Afterward, the unbound plasmid was washed off using TF buffer, and the solution of Promega Diamond dye in T10 buffer (10 mM Tris-HCl (pH 8.0), 1 mM EDTA) was added. […] IC50 value represents the mean of two to four independent measurements.

[4] = biological target: T4, E. coli Topo IV (Escherichia coli, UniProt P0AFI2); assay: Topo IV Relaxation High Throughput Plate assay, E. coli; assay type: biochemical; conditions: for LE Topo IV E. coli: LE = (1.37/HA) × pIC50
T4 construct: purchased Inspiralis (Norwich, UK)
Method: as §2

[5] = tested on: E. faecalis DRK 057 (ATCC 29212); assay: MIC broth microdilution, E. faecalis; assay type: cell-based
Method: (§3) Antimicrobial testing was carried out by the broth microdilution method in 96-well plate format following the Clinical and Laboratory Standards Institute (CLSI) guidelines and European Committee on Antimicrobial Susceptibility Testing (EUCAST) recommendations. Bacterial suspension of specific bacterial strain equivalent to 0.5 McFarland turbidity standard was diluted with cation-adjusted Mueller Hinton broth with TES (Thermo Fisher Diagnostic, Landsmeer, The Netherlands), to obtain a final inoculum of 10^5 CFU/mL. Compounds dissolved in DMSO and inoculum were mixed together and incubated for 18–20 h at 35 °C. Suspensions of Mycobacterium sp. were prepared into a tube of Middelbrook 7H9 broth supplemented with 5% OADC (Thermo Scientific, Trek Diagnostic Systems, West Sussex, UK) and incubated for at least 10 days. After incubation the minimal inhibitory concentration (MIC) values were determined by visual inspection as the lowest dilution of compounds showing no turbidity. Tetracycline was used as a positive control on every assay plate.

[6] = tested on: S. agalactiae RDK 047 (QA-990/02); assay: MIC broth microdilution, S. agalactiae; assay type: cell-based
Method: as §3

[7] = tested on: E. coli (ATCC 25922); assay: MIC broth microdilution, E. coli ATCC 25922; assay type: cell-based
Method: as §3

[8] = tested on: E. coli (QA-11.3); assay: MIC broth microdilution, E. coli QA-11.3; assay type: cell-based
Method: as §3

[9] = tested on: E. coli N43 (CGSC# 5583); assay: MIC broth microdilution, E. coli N43; assay type: cell-based; conditions: Escherichia coli
Method: as §3

[10] = tested on: A. baumannii 8C6 (GES-14); assay: MIC broth microdilution, A. baumannii; assay type: cell-based
Method: as §3

[11] = tested on: P. aeruginosa RDK 184 (DSM 939); assay: MIC broth microdilution, P. aeruginosa; assay type: cell-based
Method: as §3

[12] = tested on: HUVEC; assay: Metabolic activity assessment (cytotoxicity), HUVEC; assay type: cell-based; conditions: Homo sapiens, metabolic activity after 72 h treatment
Method: Cells of the HepG2 line (ATCC® HB-8065™) and HUVEC (ATCC® CRL-1730™) were cultured in Dulbecco’s Modified Eagle Medium (DMEM; Sigma-Aldrich, St. Louis, MO, USA) supplemented with 10% heat-deactivated FBS (Gibco, Grand Island, NE, USA), 2 mM L-glutamine, 100 U/mL penicillin, 100 μg/mL streptomycin (all from Sigma-Aldrich, St. Louis, MO, USA) in a humidified chamber at 37 °C and 5% CO2. The experiments were carried out on passages 7–9 for both cell lines. The tested compounds were dissolved in DMSO and further diluted in culture medium to a desired final concentration. Cells were seeded into 96-well plates at 8 × 10^4 cells/mL (100 μL/well) and incubated for 24 h to attach onto the wells. Cells were treated with 1 μM and 50 μM of each compound of interest or corresponding vehicle as control. […] The metabolic activity was assessed after 72 h treatment using the CellTiter 96 Aqueous One Solution Cell Proliferation Assay (Promega, Madison, WI, USA), in accordance with the manufacturer’s instructions. The absorbance was measured at 492 nm on an automated microplate reader BioTek Synergy HT (BioTek Instruments, Inc., Winooski, VT, USA). Data are presented as the percentage of metabolic activity of control cells stimulated with vehicle or as IC50 value (mean ± SD) from two independent experiments, each conducted in duplicate or triplicate. IC50 values were calculated by a non-linear regression model using Graph Pad Prism 7 software.

[13] = Enterococcus faecalis, ATCC29212; read-out: MIC E. faecalis DRK 057 (ATCC 29212)
[14] = Streptococcus agalactiae; read-out: MIC S. agalactiae RDK 047 (QA-990/02)
[15] = Escherichia coli, ATCC25922; E. coli ATCC 25922; read-out: E. coli MIC (converted)
[16] = Escherichia coli, ATCC25922; read-out: MIC E. coli (ATCC 25922)
[17] = Escherichia coli, 20 h; read-out: MIC E. coli (QA-11.3)
[18] = read-out: E. coli N43 MIC in molar
[19] = read-out: MIC E. coli N43 (CGSC# 5583)
[20] = Acinetobacter baumannii; read-out: MIC A. baumannii 8C6 (GES-14)
[21] = Pseudomonas aeruginosa, DSM939; read-out: MIC P. aeruginosa RDK 184 (DSM 939)

T1 sequence (P20831 whole entry): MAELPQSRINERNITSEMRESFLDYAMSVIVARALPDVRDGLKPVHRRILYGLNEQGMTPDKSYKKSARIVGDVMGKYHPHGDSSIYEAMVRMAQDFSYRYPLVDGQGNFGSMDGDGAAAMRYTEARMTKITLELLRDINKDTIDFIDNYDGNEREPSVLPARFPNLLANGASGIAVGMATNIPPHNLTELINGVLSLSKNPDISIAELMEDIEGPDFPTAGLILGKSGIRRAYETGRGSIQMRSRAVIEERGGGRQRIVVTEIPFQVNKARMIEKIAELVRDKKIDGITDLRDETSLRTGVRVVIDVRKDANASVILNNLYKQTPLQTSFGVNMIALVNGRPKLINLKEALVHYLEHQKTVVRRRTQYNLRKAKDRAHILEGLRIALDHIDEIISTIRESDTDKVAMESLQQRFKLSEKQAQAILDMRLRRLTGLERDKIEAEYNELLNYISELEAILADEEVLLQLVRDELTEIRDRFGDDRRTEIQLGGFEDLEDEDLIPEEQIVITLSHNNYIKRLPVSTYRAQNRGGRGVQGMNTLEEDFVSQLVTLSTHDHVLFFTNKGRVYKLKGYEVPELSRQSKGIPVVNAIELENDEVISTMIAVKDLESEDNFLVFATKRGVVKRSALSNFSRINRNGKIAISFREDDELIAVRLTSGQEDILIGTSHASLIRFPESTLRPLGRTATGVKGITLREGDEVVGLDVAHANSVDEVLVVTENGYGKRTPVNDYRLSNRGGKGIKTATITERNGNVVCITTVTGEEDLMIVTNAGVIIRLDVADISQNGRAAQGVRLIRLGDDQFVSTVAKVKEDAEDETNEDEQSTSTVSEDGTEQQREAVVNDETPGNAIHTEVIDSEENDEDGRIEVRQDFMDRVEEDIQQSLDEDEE
T1 sequence (P0A0K8 whole entry partner): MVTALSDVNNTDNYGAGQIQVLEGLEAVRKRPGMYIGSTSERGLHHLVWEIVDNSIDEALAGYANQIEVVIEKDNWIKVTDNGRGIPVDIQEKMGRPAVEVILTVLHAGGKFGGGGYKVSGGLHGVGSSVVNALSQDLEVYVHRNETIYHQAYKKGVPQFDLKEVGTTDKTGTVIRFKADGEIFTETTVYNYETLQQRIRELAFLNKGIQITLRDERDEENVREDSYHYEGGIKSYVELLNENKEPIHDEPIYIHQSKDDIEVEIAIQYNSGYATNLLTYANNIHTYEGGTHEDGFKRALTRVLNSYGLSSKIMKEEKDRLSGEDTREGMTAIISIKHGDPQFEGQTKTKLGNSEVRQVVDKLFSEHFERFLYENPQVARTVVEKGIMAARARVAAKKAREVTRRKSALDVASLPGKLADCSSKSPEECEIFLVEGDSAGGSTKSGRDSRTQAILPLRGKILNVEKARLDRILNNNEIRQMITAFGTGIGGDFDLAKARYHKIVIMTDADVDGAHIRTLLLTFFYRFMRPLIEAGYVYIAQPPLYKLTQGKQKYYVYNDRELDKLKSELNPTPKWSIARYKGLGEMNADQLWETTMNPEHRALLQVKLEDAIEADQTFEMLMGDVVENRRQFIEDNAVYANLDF

Row | SMILES | LE DNA Gyrase S. aureus [1] | IC50 [1] | IC50 [2] | LE DNA Gyrase E. coli [2] | IC50 [3] | IC50 [4] | LE Topo IV E. coli [4] | MIC [5, 13] | MIC [6, 14] | MIC [7, 15] | MIC [7, 16] | MIC [8, 17] | MIC [9, 18] | MIC [9, 19] | MIC [10, 20] | MIC [11, 21] | IC50 [12] | further results
1 | COc1ccc2nccc(CCN3CCC(NCc4ccc(OC(F)F)c(O)c4)CC3)c2n1 [Compound 20, 2-(Difluoromethoxy)-5-((1-(2-(6-methoxy-1,5-naphthyridin-4-yl)ethyl)piperidin-4-ylamino)methyl)phenol] | 0.27 | 0.33 ± 0.02 µM | 4.41 ± 0.16 µM | 0.22 | > 100 µM | 0.06 µM | 0.30 | 4 mg/L (≈ 8.72 µM) | 2 mg/L (≈ 4.36 µM) | 17.4 µM | 8 mg/L | 1 mg/L (≈ 2.18 µM) | 1.09 µM | 0.5 mg/L | 4 mg/L (≈ 8.72 µM) | > 128 mg/L | – | IC50 ([12]; 72 h): 29.8 ± 1.13 µM
2 | COc1ccc2nccc(CCN3CCC(NCc4cnn(-c5ccccc5)c4)CC3)c2n1 [Compound 5, 1-(2-(6-Methoxy-1,5-naphthyridin-4-yl)ethyl)-N-((1-phenyl-1H-pyrazol-4-yl)methyl)piperidin-4-amine] | 0.27 | 0.33 ± 0.08 µM | 3 ± 0.55 µM | 0.23 | 29.6 ± 0.54 µM | 0.085 ± 0.002 µM | 0.29 | 1 mg/L (≈ 2.26 µM) | 1 mg/L (≈ 2.26 µM) | 36.1 µM | 16 mg/L | 2 mg/L (≈ 4.52 µM) | 2.26 µM | 1 mg/L | 4 mg/L (≈ 9.04 µM) | > 128 mg/L | 10.7 ± 0.01 µM | improvement in S. aureus gyrase IC50 compared to its predecessor ([1]; vs methoxy-quinoline cyclohexyl-amide predecessor): 2.5 fold; increase in potency on E. coli DNA gyrase ([2]; vs most potent compound from previous study [18]): Approximately 4 fold; LE Topo IV S. aureus ([3]; LE = (1.37/HA) × pIC50): 0.19
3 | COc1ccc2nccc(CCN3CCC(NCc4cnn(-c5ccccc5)n4)CC3)c2n1 [Compound 8, 1-(2-(6-Methoxy-1,5-naphthyridin-4-yl)ethyl)-N-((2-phenyl-2H-1,2,3-triazol-4-yl)methyl)piperidin-4-amine] | 0.27 | 0.24 ± 0.04 µM | 7.83 ± 0.55 µM | 0.21 | > 100 µM | 0.21 µM | 0.28 | 1 mg/L (≈ 2.25 µM) | 0.5 mg/L (≈ 1.13 µM) | 144 µM | 64 mg/L | 32 mg/L (≈ 72.1 µM) | 2.26 µM | 1 mg/L | 32 mg/L (≈ 72.1 µM) | > 128 mg/L | 39.4 ± 5.47 µM | –
4 | COc1ccc2nccc(CCN3CCC(NCc4c(C)nc5c(C)cccn45)CC3)c2n1 [Compound 6, N-((2,8-Dimethylimidazo[1,2-a]pyridin-3-yl)methyl)-1-(2-(6-methoxy-1,5-naphthyridin-4-yl)ethyl)piperidin-4-amine] | – | > 100 µM | > 100 µM | – | > 100 µM | > 100 µM | – | – | – | – | – | – | 288 µM | 128 mg/L | – | – | > 50 µM | MIC ([5]; Enterococcus faecalis, ATCC29212, read-out: MIC E. faecalis DRK 057 (ATCC 29212)): > 128 mg/L; MIC ([6]; Streptococcus agalactiae, read-out: MIC S. agalactiae RDK 047 (QA-990/02)): 128 mg/L (≈ 288 µM); MIC ([7]; Escherichia coli, ATCC25922, 20 h, read-out: E. coli MIC in molar): 288 µM; MIC ([7]; Escherichia coli, ATCC25922, read-out: MIC E. coli (ATCC 25922)): > 128 mg/L; MIC ([8]; Escherichia coli, 20 h, read-out: MIC E. coli (QA-11.3)): 128 mg/L (≈ 288 µM); MIC ([10]; Acinetobacter baumannii, read-out: MIC A. baumannii 8C6 (GES-14)): > 128 mg/L; MIC ([11]; Pseudomonas aeruginosa, DSM939, read-out: MIC P. aeruginosa RDK 184 (DSM 939)): > 128 mg/L
5 | COc1ccc(CNC2CCN(CCc3ccnc4ccc(OC)nc34)CC2)cn1 [Compound 22, 1-(2-(6-Methoxy-1,5-naphthyridin-4-yl)ethyl)-N-((6-methoxypyridin-3-yl)methyl)piperidin-4-amine] | 0.30 | 0.34 ± 0.05 µM | 7.24 ± 0.34 µM | 0.23 | > 100 µM | > 100 µM | – | 2 mg/L (≈ 4.91 µM) | 1 mg/L (≈ 2.45 µM) | 38.1 µM | 16 mg/L | 4 mg/L (≈ 9.82 µM) | 2.38 µM | 1 mg/L | 4 mg/L (≈ 9.82 µM) | > 128 mg/L | > 50 µM | –

From publication PMC8300687, “A Fine-Tuned Lipophilicity/Hydrophilicity Ratio Governs Antibacterial Potency and Selectivity of Bifurcated Halogen Bond-Forming NBTIs” (Antibiotics, 2021)
